The target in one assay is human recombinant FGFR1 (Homo sapiens, UniProt P11362). Description: FGFR family enzymatic activity assay (Caliper-based kinase assay), FGFR1. Particulars: FGFR1 0.5 nM, ATP 100 μM, peptide substrate 1 μM, room temperature 3 h. Type of assay: biochemical. An excerpt:
A Caliper-based kinase assay (Caliper Life Sciences, Hopkinton, Mass.) was used to measure inhibition of FGFR family (FGFR1, FGFR2, FGFR3, FGFR4) kinase activity of a compound of Formula (I′) or (I). […] This value is presented as the IC50.

Another assay concerns SNU-16 cells. The assay is described as follows: Inhibition of FGFR2-dependent cell growth (Cell-titer Glo). Particulars: Homo sapiens, SNU16 cells, 72 hrs incubation, cell viability by Cell-titer Glo. It is filed as cell-based. As to the method: The cell-based effects of FGFR inhibitors were determined by measuring inhibition of FGFR-dependent cell line growth. […] Percent inhibition of cell growth was calculated as a percentage of untreated cell viability. The percent inhibition was plotted as a function of log compound concentration. The IC50 was then calculated for each compound using Prism software from GraphPad.

The structures appear in SMILES notation.

Sequence of human recombinant FGFR1 (P11362 22-822): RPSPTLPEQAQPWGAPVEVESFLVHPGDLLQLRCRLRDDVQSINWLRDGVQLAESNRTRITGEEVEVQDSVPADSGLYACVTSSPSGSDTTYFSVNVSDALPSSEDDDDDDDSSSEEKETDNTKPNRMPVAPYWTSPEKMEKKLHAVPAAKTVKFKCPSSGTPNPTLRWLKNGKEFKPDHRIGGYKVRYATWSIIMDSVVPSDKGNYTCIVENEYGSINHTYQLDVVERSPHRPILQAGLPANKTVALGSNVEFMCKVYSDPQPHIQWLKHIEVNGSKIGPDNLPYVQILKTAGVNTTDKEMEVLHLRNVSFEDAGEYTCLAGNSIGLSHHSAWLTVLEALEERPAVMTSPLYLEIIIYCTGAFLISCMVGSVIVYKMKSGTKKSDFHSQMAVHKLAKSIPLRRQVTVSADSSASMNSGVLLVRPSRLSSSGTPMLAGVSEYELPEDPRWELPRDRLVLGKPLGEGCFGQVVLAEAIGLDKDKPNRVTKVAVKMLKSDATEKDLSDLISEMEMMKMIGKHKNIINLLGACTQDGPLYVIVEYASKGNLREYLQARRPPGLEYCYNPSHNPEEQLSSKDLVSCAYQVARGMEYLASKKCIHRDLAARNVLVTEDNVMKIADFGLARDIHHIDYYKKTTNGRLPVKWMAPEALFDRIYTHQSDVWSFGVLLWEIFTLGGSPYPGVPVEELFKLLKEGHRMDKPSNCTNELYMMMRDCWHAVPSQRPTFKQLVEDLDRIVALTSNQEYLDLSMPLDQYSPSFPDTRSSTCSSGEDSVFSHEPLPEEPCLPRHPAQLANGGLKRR

For `C=CC(=O)Nc1ccc(CCn2c(=O)c(-c3cc(OC)cc(OC)c3Cl)cc3cnc(NCCN4CCOCC4)nc32)c(F)c1` [Example 55, N-(4-(2-(6-(2-chloro-3,5-dimethoxyphenyl)-2-((2-morpholinoethyl)amino)-7-oxopyrido[2,3-d]pyrimidin-8(7H)-yl)ethyl)-3-fluorophenyl)acrylamide], the figures for the IC50 at human recombinant FGFR1 and in the assay on SNU-16 cells were 2.2 nM and 4.3 nM, respectively.

For `C=CC(=O)Nc1ccc(CCn2c(=O)c(-c3cc(OC)cc(OC)c3Cl)cc3cnc(NCCN4CCOCC4)nc32)cc1Cl` [Example 56, N-(4-(2-(6-(2-chloro-3,5-dimethoxyphenyl)-2-((2-morpholinoethyl)amino)-7-oxopyrido[2,3-d]pyrimidin-8(7H)-yl)ethyl)-2-chlorophenyl)acrylamide], the 50% inhibitory concentration (IC50) on human recombinant FGFR1 is 3.7 nM; in the assay on SNU-16 cells, 5 nM.

With `C=CC(=O)Nc1ccc(CCn2c(=O)c(-c3cc(OC)cc(OC)c3Cl)cc3cnc(NCCN4CCN(C(C)C)CC4)nc32)cc1` [Example 57, N-(4-(2-(6-(2-chloro-3,5-dimethoxyphenyl)-2-((4-isopropylpiperazin-1-yl-ethyl)amino)-7-oxopyrido[2,3-d]pyrimidin-8(7H)-yl)ethyl)phenyl)acylamide], the 50% inhibitory concentration (IC50) at human recombinant FGFR1 and with SNU-16 cells was 0.4 nM each time.

For `C=CC(=O)Nc1ccc(CCn2c(=O)c(-c3cc(OC)cc(OC)c3Cl)cc3cnc(NCCN4C[C@@H](C)O[C@@H](C)C4)nc32)cc1` [Example 58, N-(4-(2-(6-(2-chloro-3,5-dimethoxyphenyl)-2-((2-((2R,6S)-2,6-dimethyl-morpholino)ethyl)-amino)-7-oxopyrido[2,3-d]pyrimidin-8(7H)-yl)ethyl)phenyl)acrylamide], the half-inhibitory concentration (IC50) on human recombinant FGFR1 turned out to be 1.3 nM; with SNU-16 cells, 0.8 nM.

As to `C#CCNc1ncc2cc(-c3cc(OC)cc(OC)c3Cl)c(=O)n(CCc3ccc(NC(=O)C=C)cn3)c2n1` [Example 59, N-(6-(2-(6-(2-chloro-3,5-dimethoxyphenyl)-7-oxo-2-(prop-2-yn-1-ylamino)pyrido-[2,3-d]pyrimidin-8(7H)-yl)ethyl)pyridin-3-yl)acrylamide], the half-maximal inhibitory concentration (IC50) on human recombinant FGFR1 came to 0.5 nM; with SNU-16 cells, 0.6 nM.

As to `C=CC(=O)Nc1ccc(CCn2c(=O)c(-c3cc(OC)cc(OC)c3Cl)cc3cnc(NC(C)(C)CN4CCOCC4)nc32)cc1` [Example 67, N-(4-(2-(6-(2-chloro-3,5-dimethoxyphenyl)-2-((2-methyl-1-morpholinopropan-2-yl)amino)-7-oxopyrido[2,3-d]pyrimidin-8(7H)-yl)ethyl)phenyl)acrylamide], the results for the IC50 on human recombinant FGFR1 and in the assay with SNU-16 cells were 2.3 nM and 9.7 nM, respectively.

Regarding `C=CC(=O)Nc1ccc(CCn2c(=O)c(-c3cc(OC)cc(OC)c3Cl)cc3cnc(NCCN4CCS(=O)(=O)CC4)nc32)cc1` [Example 74, N-(4-(2-(6-(2-chloro-3,5-dimethoxyphenyl)-2-((2-(1,1-dioxidothiomorpholino)-ethyl)amino)-7-oxopyrido[2,3-d]pyrimidin-8(7H)-yl)ethyl)phenyl)acrylamide], the figures for the half-maximal inhibitory concentration (IC50) at human recombinant FGFR1 and in the assay on SNU-16 cells were 2.2 nM and 13.3 nM, respectively.

Take `C=CC(=O)Nc1ccc(CCn2c(=O)c(-c3c(Cl)c(OC)cc(OC)c3Cl)cc3cnc(NC(C)(C)CO)nc32)cc1` [Example 77, N-(4-(2-(6-(2,6-dichloro-3,5-dimethoxyphenyl)-2-((1-hydroxy-2-methylpropan-2-yl)amino)-7-oxopyrido[2,3-d]pyrimidin-8(7H)-yl)ethyl)phenyl)acrylamide]: the IC50 on human recombinant FGFR1 is 2.3 nM; with SNU-16 cells, 7 nM.

As to `C=CC(=O)Nc1ccc(CCn2c(=O)c(-c3cc(OC)cc(OC)c3Cl)cc3cnc(NCCN4CCN(C5COC5)CC4)nc32)cc1` [Example 78, N-(4-(2-(6-(2-chloro-3,5-dimethoxyphenyl)-2-((2-(4-(oxetan-3-yl)piperazin-1-yl)ethyl)amino)-7-oxopyrido[2,3-d]pyrimidin-8(7H)-yl)ethyl)phenyl)acrylamide], the results for the concentration for half-maximal inhibition (IC50) on human recombinant FGFR1 and in the assay on SNU-16 cells were 0.9 nM and 3 nM, respectively.

Turning to `C=CC(=O)Nc1ccc(CCn2c(=O)c(-c3c(Cl)c(OC)cc(OC)c3Cl)cc3cnc(NCC)nc32)nc1` [Example 79, N-(6-(2-(6-(2,6-dichloro-3,5-dimethoxyphenyl)-2-(ethylamino)-7-oxopyrido[2,3-d]pyrimidin-8(7H)-yl)ethyl)pyridin-3-yl)acrylamide], the IC50 on human recombinant FGFR1 is 0.2 nM; in the assay on SNU-16 cells, 3.4 nM.

With `C=CC(=O)Nc1ccc(CCn2c(=O)c(-c3c(Cl)c(OC)cc(OC)c3Cl)cc3cnc(NC(C)C)nc32)nc1` [Example 80, N-(6-(2-(6-(2,6-dichloro-3,5-dimethoxyphenyl)-2-(isopropylamino)-7-oxopyrido[2,3-d]pyrimidin-8(7H)-yl)ethyl)pyridin-3-yl)acrylamide], the IC50 was found to be 0.5 nM at human recombinant FGFR1 and 9.6 nM with SNU-16 cells.

As to `C=CC(=O)Nc1ccc(CCn2c(=O)c(-c3c(Cl)c(OC)cc(OC)c3Cl)cc3cnc(NC4CCOCC4)nc32)nc1` [Example 81, N-(6-(2-(6-(2,6-dichloro-3,5-dimethoxyphenyl)-7-oxo-2-((tetrahydro-2H-pyran-4-yl)amino)-pyrido[2,3-d]pyrimidin-8(7H)-yl)ethyl)pyridin-3-yl)acrylamide], the 50% inhibitory concentration (IC50) is 0.3 nM at human recombinant FGFR1 and 4.1 nM with SNU-16 cells.

`C=CC(=O)Nc1ccc(CCn2c(=O)c(-c3cc(OC)cc(OC)c3Cl)cc3cnc(NCCN4[C@H](C)CNC[C@@H]4C)nc32)cc1` [Example 82, N-(4-(2-(6-(2-chloro-3,5-dimethoxyphenyl)-2-((2-((2R,6S)-2,6-dimethylpiperazin-1-yl)ethyl)amino)-7-oxopyrido[2,3-d]pyrimidin-8(7H)-yl)ethyl)phenyl)acrylamide]: the figures for the IC50 on human recombinant FGFR1 and with SNU-16 cells were 0.5 nM and 70.4 nM, respectively.

Take `C=CC(=O)Nc1ccc(CCn2c(=O)c(-c3cc(OC)cc(OC)c3Cl)cc3cnc(NCC(C)(C)CO)nc32)cc1` [Example 83, N-(4-(2-(6-(2-chloro-3,5-dimethoxyphenyl)-2-((3-hydroxy-2,2-dimethyl-propyl)amino)-7-oxopyrido[2,3-d]pyrimidin-8(7H)-yl)ethyl)phenyl)acrylamide]: the IC50 at human recombinant FGFR1 turned out to be 0.6 nM; with SNU-16 cells, 4.2 nM.

As for `C=CC(=O)Nc1ccc(CCn2c(=O)c(-c3c(Cl)c(OC)cc(OC)c3Cl)cc3cnc(NCC(C)(C)O)nc32)nc1` [Example 84, N-(6-(2-(6-(2,6-dichloro-3,5-dimethoxyphenyl)-2-((2-hydroxy-2-methylpropyl)-amino)-7-oxopyrido[2,3-d]pyrimidin-8(7H)-yl)ethyl)pyridin-3-yl)acrylamide], the IC50 amounted to 0.7 nM at human recombinant FGFR1 and 14.5 nM in the assay with SNU-16 cells.

As to `C=CC(=O)Nc1ccc(CCn2c(=O)c(-c3c(Cl)c(OC)cc(OC)c3Cl)cc3cnc(NCCO)nc32)nc1` [Example 86, N-(6-(2-(6-(2,6-dichloro-3,5-dimethoxyphenyl)-2-((2-hydroxyethyl)amino)-7-oxopyrido[2,3-d]pyrimidin-8(7H)-yl)ethyl)pyridin-3-yl)acrylamide], the IC50 at human recombinant FGFR1 turned out to be 0.6 nM; in the assay with SNU-16 cells it was 11.4 nM.

For `C=CC(=O)Nc1ccc(CCn2c(=O)c(-c3c(Cl)c(OC)cc(OC)c3Cl)cc3cnc(NC(CO)CO)nc32)nc1` [Example 87, N-(6-(2-(6-(2,6-dichloro-3,5-dimethoxyphenyl)-2-((1,3-dihydroxypropan-2-yl)amino)-7-oxopyrido[2,3-d]pyrimidin-8(7H)-yl)ethyl)pyridin-3-yl)acrylamide], the half-maximal inhibitory concentration (IC50) is 1.2 nM at human recombinant FGFR1 and 169 nM in the assay on SNU-16 cells.

As a reminder, the IC50 is the concentration that gives 50% inhibition.

The values above are taken from US9630963B2, “Quinolone derivatives as fibroblast growth factor inhibitors” (Principia Biopharma, Inc., priority 2013, dated 2017).
